Measurements reported in patent publication US20120329794A1, “Ab1 KINASE INHIBITORS” (Kyowa Hakko Kirin Co., Ltd., priority 2006, published 2012).

Each molecule was assayed against T1, Abl(T315I) protein (Homo sapiens, UniProt P00519, T315I) (assay: Abl T315I inhibitory activity (radiometric kinase assay)). Conditions: 1 μmol/L test compound.
T1 construct: purchased Upstate 14-522
Type: biochemical
Procedure: In order to measure Abl T315I inhibitory activity, the following method was used: A reaction solution was prepared so that the final concentrations in a volume of 25 μL were 5 to 10 mU of Abl(T315I) protein (Upstate, catalog No. 14-522), 8 mmol/L of 3-morpholinopropane sulfonic acid (pH 7.0), 0.2 mmol/L of, EDTA, 50 μmol/L of EAIYAAPFAKKK, 10 mmol/L of Mg acetate, [γ-^33P-ATP] (500 cpm/pmol), 0.1% of dimethyl sulfoxide (DMSO), and 1 μmol/L of test compound, followed by enzyme reaction at room temperature for 40 minutes. The reaction was terminated with 5 μL of a 3% aqueous phosphoric acid solution, and the reaction solution was added to a P30 filter mat. Then, the filter was washed with a 75 mmol/L aqueous phosphoric acid solution three times and 100% methanol once, and then dried. Then, the radioactivity of the filter was measured.
Assuming that a measured value of an enzyme to which 0.1% of DMSO was added was 100%, and a measured value of a sample to which an enzyme was not added was 0%, the relative activity (%) of radioactivity of a sample to which the test compound was added was calculated, and a value obtained by subtracting the calculated value from 100 was considered as Abl T315I inhibitory activity (%) of the test compound.

inhibition at 1 µM [%] | SMILES
≥ 90 | Nc1cc(/C=C/c2n[nH]c3ccccc23)ccc1OCCN1CCOCC1 [Compound 4]
≥ 90 | CC(=O)N1CCN(C(=O)c2ccc(/C=C/c3n[nH]c4ccccc34)cc2)CC1 [Compound 6]
≥ 90 | COCC(=O)N1CCN(C(=O)c2ccc(/C=C/c3n[nH]c4ccccc34)cc2)CC1 [Compound 7]
